# Earlier results, collected in patent US20130095180A1, “TIME-DELAYED SUSTAINED RELEASE PHARMACEUTICAL COMPOSITION COMPRISING DAPOXETINE FOR ORAL ADMINISTRATION” (NAVIPHARM. CO., LTD., priority 2010, published 2013).
# Settings: background characteristics of the drug
Structure (SMILES),Half Life,Tmax
CCCOc1ccc(S(=O)(=O)NCCC2CCCN2C)cc1-c1nc2c(CCC)nn(C)c2c(=O)[nH]1 (centres unmarked) [Udenafil],7 to 12 h,1 h
CCCc1nn(C)c2c(=O)[nH]c(-c3cc(S(=O)(=O)N4CCN(C)CC4)ccc3OCC)nc12 [Sildenafil],3 to 4 h,

# Further lines, results first:
Half Life,Tmax,Structure (SMILES)
5 to 11 h,0.3 to 0.5 h,COc1ccc(CN=c2[nH]c(N3CCC[C@H]3CO)ncc2C(=O)NCc2ncccn2)cc1Cl [Avanafil]
4 to 5 h,0.7 h,CCCc1nc(C)c2c(=O)[nH]c(-c3cc(S(=O)(=O)N4CCN(CC)CC4)ccc3OCC)nn12 [Vardenafil]
,about 1 hour,"CN(C)[C@@H](CCOc1cccc2ccccc12)c1ccccc1 [Dapoxetine, (S)-(+)-N,N-dimethyl-1-phenyl-3-(1-Naphthalenyloxy)-propaneamine]"
